{"source": "paper PMC6934184", "about": "“Selective DNA-PKcs inhibition extends the therapeutic index of localized radiotherapy and chemotherapy” (The Journal of Clinical Investigation, 2019)", "target": "T1, FGFR3 (Homo sapiens, UniProt P22607)", "T1 construct": "purchased Thermo Fisher Scientific (Life Technologies) SelectScreen", "T1 sequence (P22607 23-806)": "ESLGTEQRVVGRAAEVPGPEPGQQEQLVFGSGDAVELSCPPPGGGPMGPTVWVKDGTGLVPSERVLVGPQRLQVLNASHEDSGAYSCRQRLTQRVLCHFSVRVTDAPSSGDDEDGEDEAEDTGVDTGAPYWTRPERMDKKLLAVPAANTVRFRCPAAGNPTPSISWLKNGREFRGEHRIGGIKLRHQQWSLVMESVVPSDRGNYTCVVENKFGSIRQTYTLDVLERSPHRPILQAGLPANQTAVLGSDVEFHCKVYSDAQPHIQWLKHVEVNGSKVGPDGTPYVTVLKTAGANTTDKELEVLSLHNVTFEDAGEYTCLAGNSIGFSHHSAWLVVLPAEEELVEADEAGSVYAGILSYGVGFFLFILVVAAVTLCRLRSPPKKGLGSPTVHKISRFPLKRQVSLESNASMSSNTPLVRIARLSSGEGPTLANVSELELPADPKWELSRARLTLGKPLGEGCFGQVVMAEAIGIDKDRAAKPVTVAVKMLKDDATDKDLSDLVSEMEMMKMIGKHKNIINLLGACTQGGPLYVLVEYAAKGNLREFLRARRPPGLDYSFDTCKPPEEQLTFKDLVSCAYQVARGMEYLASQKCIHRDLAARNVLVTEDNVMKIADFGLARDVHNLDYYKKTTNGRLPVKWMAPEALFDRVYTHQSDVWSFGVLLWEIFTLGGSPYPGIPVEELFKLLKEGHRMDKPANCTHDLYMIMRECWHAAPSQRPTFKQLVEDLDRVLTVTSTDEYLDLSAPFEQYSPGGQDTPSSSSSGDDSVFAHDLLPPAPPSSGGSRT", "assay": "SelectScreen Z'LYTE", "type": "biochemical", "method_in_brief": "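Percent values come from Thermo SelectScreen profiling of NU5455, combining activity and binding assays. CSF1R was run in Z'LYTE format at Km app ATP, and CAMK1 in Adapta format with ATP listed at 10.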"}
{"smiles": "CN(C(=O)CN1CCOCC1)c1ccc2sc3c(-c4cccc5c(=O)cc(N6CC7CCC(C6)O7)oc45)cccc3c2c1", "note": "[NU5455]", "values": [{"measurement": "inhibition at 1 µM", "result": 0.9, "unit": "%"}]}
